# Reference: patent US9687432B2, “Antimicrobial bispyridine amine compositions and uses” (LONZA INC., priority 2012, dated 2017)
# Key:
# Foam height test = type: physicochemical; settings: for foam height, 30 sec / foam height, 1 min / foam height, 2 min / foam height, Initial Reading: 0.5 grams in 49.5 ml DI water; for foam height, 30 sec / foam height, 1 min / foam height, 2 min: 100 ml graduated cylinder; for foam height, Initial Reading: read in 100 ml graduated cylinder with 1 ml line increments; for Type of Foam: 0.5 grams of active in 49.5 ml DI water, blended 1 minute
# Description: The testing was performed on samples containing octenidine dihydrochloride, octenidine distearate, PHMB HCl and the chloride salts benzalkonium chloride, benzethonium chloride, and cetylpyridinium chloride.
# A 250 ml beaker was filed with 49.5 ml of deionized (DI) water for each sample. Then, 0.5 grams of the active was added to the beaker. Each solution was blended with a Bamix® wand homogenizer/mixer for 1 minute. The solution was then poured into a 100 ml graduated cylinder with 1 ml line increments. The height of the foam was documented at an initial, 30 second, 1 minute, and 2 minute time point.
# [1] = system: Corynebacterium xerosis (373); experiment: MIC test against skin microorganisms; type: cell-based; settings: 48 hrs at 36° C., TSB first set, BHI second set
# Description: (§1) MICs for the organisms were determined using a standard 96-well microtiter plate assay in Trypic Soy Broth (TSB). […] Bacteria were grown in Tryptic Soy Broth or Brain Heart Infusion (E. hirae) for 24 hrs and were adjusted to one million cells per milliliter in same type of broth. Following incubation (48 hrs at 36° C.), the lowest concentration of test compound inhibiting growth was recorded as the Minimum Inhibitory Concentration (MIC). The actives were serially diluted and tested at final concentrations ranging from 156.3-0.61 ppm. MIC was run for two different sets.
# (§2) Bacteria were grown overnight in Tryptic Soy Brother (TSB) or Brain Heart Infusion (BHI) and were adjusted to approximately 1×10^6 colony forming units per ml (cfu/ml) and used to inoculate the wells. Final bacterial concentration in the test wells was 5×10^5 cfu/ml. For Corynebacterium spp, TSB was used for the first set and BHI for the second set. Inoculated microtiter plates were incubated at 36° C. for 48 hours.
# (§3) The lowest concentration of test compound inhibiting growth was recorded as the minimum inhibitory concentration.
# [2] = system: Staphylococcus haemolyticus (29970); experiment: MIC test against skin microorganisms; type: cell-based; settings: 48 hrs at 36° C., two different sets
# Description: as §1, §2, §3
# [3] = system: Corynebacterium minutissimum (23348); experiment: MIC test against skin microorganisms; type: cell-based; settings: 48 hrs at 36° C., TSB first set, BHI second set
# Description: as §1, §2, §3
# [4] = system: Bacillus licheniformis (14580); experiment: MIC test against skin microorganisms; type: cell-based; settings: 48 hrs at 36° C., two different sets
# Description: as §1, §2, §3
# LB penicillium sp. = experiment: Minimum Inhibitory Concentration (MIC) test, 96-well microtiter plate; type: cell-based; settings: 48 hrs at 36° C., Sabouraud Dextrose Broth
# Description: (§4) MICs for the organisms were determined using a standard 96-well microtiter plate assay in Tryptic Soy Broth (TSB) or Sabouraud Dextrose Broth (SDB). A stock solution (2500 ppm) of Octenidine distearate was prepared in methanol and stock solutions (2500 ppm) of Octenidine dihydrochloride and PHMB were prepared in absolute ethanol. […] Fungal inocula were grown up on Sabouraud Dextrose Agar plates (yeast) or Potato Dextrose Agar plates (mold) and mold spores and yeast cells were adjusted to approximately 100,000 per milliliter in Sabouraud Dextrose Broth (pH 5.6). Bacterial and fungal cultures were used to inoculate the serially diluted antimicrobials in the 96 well microplate and the plate was then incubated for 48 hrs at 36° C. The lowest concentration of test compound inhibiting growth at 48 hrs. (as determined by visual inspection) was recorded as the Minimum Inhibitory Concentration (MIC)
# [5] = system: Gliocladium virens (9645); experiment: as above; type: cell-based; settings: 48 hrs at 36° C., Sabouraud Dextrose Broth
# Description: as §4
# [6] = system: Penicillium pinophilium (11797); experiment: as above; type: cell-based; settings: 48 hrs at 36° C., Sabouraud Dextrose Broth
# Description: as §4
# Escherichia coli (10536) = experiment: as above; type: cell-based; settings: 48 hrs at 36° C., visual inspection
# Description: as §4
# Candida albicans (10231) = experiment: as above; type: cell-based; settings: 48 hrs at 36° C., Sabouraud Dextrose Broth
# Description: as §4
# Bacillus subtilus (6633) = experiment: as above; type: cell-based; settings: 48 hrs at 36° C., visual inspection
# Description: as §4
# [7] = system: Aureobasidium pullulans (9348); experiment: as above; type: cell-based; settings: 48 hrs at 36° C., Sabouraud Dextrose Broth
# Description: as §4
# [8] = system: Pseudomonas aeruginosa (9027); experiment: as above; type: cell-based; settings: 48 hrs at 36° C., visual inspection
# Description: as §4
# [9] = system: Enterococcus hirae (8043); experiment: as above; type: cell-based; settings: 48 hrs at 36° C., visual inspection
# Description: as §4
# [10] = system: Aspergillus niger (16404); experiment: as above; type: cell-based; settings: 48 hrs at 36° C., Sabouraud Dextrose Broth
# Description: as §4
# [11] = system: Klebsiella pneumoniae (4352); experiment: as above; type: cell-based; settings: 48 hrs at 36° C., visual inspection
# Description: as §4
# [12] = system: Staphylococcus aureus (6538); experiment: as above; type: cell-based; settings: 48 hrs at 36° C., visual inspection
# Description: as §4
# [13] = system: Enterobacter gergoviae (33028); experiment: as above; type: cell-based; settings: 48 hrs at 36° C., visual inspection
# Description: as §4
# [14] = system: Pseudomonas aeruginosa (15442); experiment: as above; type: cell-based; settings: 48 hrs at 36° C., visual inspection
# Description: as §4
# Paecilomyces sp. = experiment: as above; type: cell-based; settings: 48 hrs at 36° C., Sabouraud Dextrose Broth
# Description: as §4
molecule,measurement,setting,value
"CC(C)(C)CC(C)(C)c1ccc(OCCOCC[N+](C)(C)Cc2ccccc2)cc1 [Benzethonium Chloride, benzethonium chloride]","foam height, 30 sec",Foam height test,107
same,"foam height, 1 min",Foam height test,107
same,"foam height, 2 min",Foam height test,106
same,"foam height, Initial Reading",Foam height test,107
same,Type of Foam,Foam height test,Tight
Polyhexamethylene biguanide stearate [PHMBS],MIC (ppm),[1],9.76 ppm
same,MIC (ppm),[2],2.44-4.88 ppm
same,MIC (ppm),[3],0.61-4.88 ppm
same,MIC (ppm),[4],2.44-4.88 ppm
benzalkonium chloride,"foam height, 30 sec",Foam height test,103
same,"foam height, 1 min",Foam height test,102
same,"foam height, 2 min",Foam height test,102
same,"foam height, Initial Reading",Foam height test,103
same,Type of Foam,Foam height test,Tight
polyhexamethylene biguanide hydrochloride [PHMB],"foam height, 30 sec",Foam height test,85
same,"foam height, 1 min",Foam height test,80
same,"foam height, 2 min",Foam height test,75
same,"foam height, Initial Reading",Foam height test,87
same,Type of Foam,Foam height test,Slightly loose
same,Minimum Inhibitory Concentration (MIC),LB penicillium sp.,1.22 ppm
same,Minimum Inhibitory Concentration (MIC),[5],0.61 ppm
same,Minimum Inhibitory Concentration (MIC),[6],2.44 ppm
same,Minimum Inhibitory Concentration (MIC),Escherichia coli (10536),1.22 ppm
same,Minimum Inhibitory Concentration (MIC),Candida albicans (10231),0.61 ppm
same,Minimum Inhibitory Concentration (MIC),Bacillus subtilus (6633),0.31-0.61 ppm ^
same,Minimum Inhibitory Concentration (MIC),[7],1.22 ppm
same,Minimum Inhibitory Concentration (MIC),[8],2.44 ppm
same,Minimum Inhibitory Concentration (MIC),[9],2.44 ppm
same,Minimum Inhibitory Concentration (MIC),[10],2.44 ppm
same,Minimum Inhibitory Concentration (MIC),[11],1.22-2.44 ppm ^
same,Minimum Inhibitory Concentration (MIC),[12],1.22-2.44 ppm ^
same,Minimum Inhibitory Concentration (MIC),[13],1.22-2.44 ppm ^
same,Minimum Inhibitory Concentration (MIC),[14],4.88 ppm
same,Minimum Inhibitory Concentration (MIC),Paecilomyces sp.,1250-5000 ppm
